Laboratory results published in the NIST ThermoML archive (doi:10.1016/j.jct.2009.07.006).
Numbers after ± are expanded uncertainties.

Details: Liquid, Vibrating tube method

Cc1ccccn1 [2-methylpyridine]
mass density [kg/m3]
Details | 298.15 K | 308.15 K | 318.15 K | 328.15 K
2130 kPa | 941.2 ± 0.8 | 932.1 ± 0.8 | 922.8 ± 0.8 | 913.5 ± 0.8
4150 kPa | 942.5 ± 0.8 | 933.5 ± 0.8 | 924.3 ± 0.8 | 915.1 ± 0.8
6180 kPa | 943.9 ± 0.8 | 935 ± 0.8 | 925.8 ± 0.8 | 916.7 ± 0.8
8210 kPa | 945.3 ± 0.8 | 936.4 ± 0.8 | 927.3 ± 0.8 | 918.3 ± 0.8
10230 kPa | 946.6 ± 0.8 | 937.8 ± 0.8 | 928.8 ± 0.8 | 919.8 ± 0.8
11250 kPa | 947.2 ± 0.8 | 938.5 ± 0.8 | 929.5 ± 0.8 | 920.5 ± 0.8
12260 kPa | 947.9 ± 0.8 | 939.1 ± 0.8 | 930.2 ± 0.8 | 921.3 ± 0.8
14290 kPa | 949.2 ± 0.8 | 940.5 ± 0.8 | 931.6 ± 0.8 | 922.8 ± 0.8
16310 kPa | 950.5 ± 0.8 | 941.9 ± 0.8 | 933 ± 0.8 | 924.3 ± 0.8
18340 kPa | 951.7 ± 0.8 | 943.2 ± 0.8 | 934.4 ± 0.8 | 925.7 ± 0.8
20370 kPa | 953 ± 0.8 | 944.5 ± 0.8 | 935.8 ± 0.8 | 927.2 ± 0.8
22390 kPa | 954.2 ± 0.8 | 945.8 ± 0.8 | 937.1 ± 0.8 | 928.6 ± 0.8
24420 kPa | 955.4 ± 0.8 | 947 ± 0.8 | 938.5 ± 0.8 | 930 ± 0.8
26450 kPa | 956.6 ± 0.8 | 948.3 ± 0.8 | 939.8 ± 0.8 | 931.4 ± 0.8
28470 kPa | 957.7 ± 0.8 | 949.5 ± 0.8 | 941.1 ± 0.8 | 932.7 ± 0.8
29490 kPa | 958.3 ± 0.8 | 950.1 ± 0.8 | 941.7 ± 0.8 | 933.4 ± 0.8
30500 kPa | 958.9 ± 0.8 | 950.8 ± 0.8 | 942.4 ± 0.8 | 934.1 ± 0.8
32520 kPa | 960.1 ± 0.8 | 952 ± 0.8 | 943.7 ± 0.8 | 935.4 ± 0.8
34550 kPa | 961.2 ± 0.8 | 953.2 ± 0.9 | 944.9 ± 0.9 | 936.8 ± 0.9
36580 kPa | 962.4 ± 0.9 | 954.3 ± 0.9 | 946.1 ± 0.9 | 938 ± 0.9
38600 kPa | 963.5 ± 0.9 | 955.5 ± 0.9 | 947.3 ± 0.9 | 939.3 ± 0.9
39620 kPa | 964 ± 0.9 | 956.1 ± 0.9 | 947.9 ± 0.9 | 940 ± 0.9

Cc1cccnc1 [3-methylpyridine]
mass density [kg/m3]
Details | 298.15 K | 308.15 K | 318.15 K | 328.15 K
2130 kPa | 953.2 ± 0.3 | 944.3 ± 0.3 | 935.3 ± 0.3 | 926.3 ± 0.3
4150 kPa | 954.5 ± 0.3 | 945.7 ± 0.3 | 936.7 ± 0.3 | 927.8 ± 0.3
6180 kPa | 955.8 ± 0.3 | 947.1 ± 0.3 | 938.1 ± 0.3 | 929.2 ± 0.3
8210 kPa | 957.1 ± 0.3 | 948.4 ± 0.3 | 939.4 ± 0.3 | 930.7 ± 0.3
10230 kPa | 958.4 ± 0.3 | 949.7 ± 0.3 | 940.9 ± 0.3 | 932.2 ± 0.3
11250 kPa | 959 ± 0.3 | 950.4 ± 0.3 | 941.6 ± 0.3 | 932.9 ± 0.3
12260 kPa | 959.6 ± 0.3 | 951 ± 0.3 | 942.3 ± 0.3 | 933.6 ± 0.3
14290 kPa | 960.8 ± 0.3 | 952.3 ± 0.3 | 943.6 ± 0.3 | 935 ± 0.3
16310 kPa | 962.1 ± 0.3 | 953.6 ± 0.3 | 944.9 ± 0.3 | 936.4 ± 0.3
18340 kPa | 963.3 ± 0.3 | 954.8 ± 0.3 | 946.2 ± 0.3 | 937.7 ± 0.3
20370 kPa | 964.4 ± 0.3 | 956.1 ± 0.3 | 947.5 ± 0.3 | 939.1 ± 0.3
22390 kPa | 965.6 ± 0.3 | 957.3 ± 0.3 | 948.8 ± 0.3 | 940.4 ± 0.3
24420 kPa | 966.7 ± 0.3 | 958.5 ± 0.3 | 950.1 ± 0.3 | 941.7 ± 0.3
26450 kPa | 967.9 ± 0.3 | 959.7 ± 0.3 | 951.3 ± 0.3 | 943.1 ± 0.3
28470 kPa | 969 ± 0.3 | 960.9 ± 0.3 | 952.6 ± 0.3 | 944.4 ± 0.3
29490 kPa | 969.6 ± 0.3 | 961.5 ± 0.3 | 953.2 ± 0.3 | 945 ± 0.3
30500 kPa | 970.1 ± 0.3 | 962 ± 0.3 | 953.8 ± 0.3 | 945.7 ± 0.3
32530 kPa | 971.2 ± 0.3 | 963.2 ± 0.3 | 955 ± 0.3 | 946.9 ± 0.4
34550 kPa | 972.3 ± 0.3 | 964.3 ± 0.3 | 956.2 ± 0.3 | 948.2 ± 0.4
36580 kPa | 973.4 ± 0.3 | 965.4 ± 0.3 | 957.4 ± 0.3 | 949.4 ± 0.4
38600 kPa | 974.5 ± 0.3 | 966.5 ± 0.3 | 958.5 ± 0.3 | 950.6 ± 0.4
39620 kPa | 975 ± 0.3 | 967.1 ± 0.3 | 959.1 ± 0.3 | 951.2 ± 0.4

Cc1ccncc1 [4-methylpyridine]
mass density [kg/m3]
Details | 298.15 K | 308.15 K | 318.15 K | 328.15 K
2130 kPa | 951.2 ± 0.3 | 942.3 ± 0.3 | 933.3 ± 0.3 | 924.3 ± 0.3
4150 kPa | 952.5 ± 0.3 | 943.7 ± 0.3 | 934.7 ± 0.3 | 925.8 ± 0.3
6180 kPa | 953.8 ± 0.3 | 945 ± 0.3 | 936.1 ± 0.3 | 927.3 ± 0.3
8210 kPa | 955.1 ± 0.3 | 946.4 ± 0.3 | 937.4 ± 0.3 | 928.7 ± 0.3
10230 kPa | 956.3 ± 0.3 | 947.7 ± 0.3 | 938.9 ± 0.3 | 930.2 ± 0.3
11250 kPa | 956.9 ± 0.3 | 948.3 ± 0.3 | 939.5 ± 0.3 | 930.9 ± 0.3
12260 kPa | 957.5 ± 0.3 | 949 ± 0.3 | 940.2 ± 0.3 | 931.6 ± 0.3
14290 kPa | 958.8 ± 0.3 | 950.3 ± 0.3 | 941.6 ± 0.3 | 933 ± 0.3
16310 kPa | 960 ± 0.3 | 951.5 ± 0.3 | 942.9 ± 0.3 | 934.4 ± 0.3
18340 kPa | 961.2 ± 0.3 | 952.8 ± 0.3 | 944.2 ± 0.3 | 935.7 ± 0.3
20370 kPa | 962.3 ± 0.3 | 954 ± 0.3 | 945.5 ± 0.3 | 937.1 ± 0.3
22390 kPa | 963.5 ± 0.3 | 955.2 ± 0.3 | 946.7 ± 0.3 | 938.4 ± 0.3
24420 kPa | 964.6 ± 0.3 | 956.4 ± 0.3 | 948 ± 0.3 | 939.7 ± 0.3
26450 kPa | 965.8 ± 0.3 | 957.6 ± 0.3 | 949.2 ± 0.3 | 941.1 ± 0.3
28470 kPa | 966.9 ± 0.3 | 958.8 ± 0.3 | 950.5 ± 0.3 | 942.3 ± 0.3
29490 kPa | 967.4 ± 0.3 | 959.3 ± 0.3 | 951.1 ± 0.3 | 943 ± 0.3
30500 kPa | 968 ± 0.3 | 959.9 ± 0.3 | 951.7 ± 0.3 | 943.6 ± 0.3
32530 kPa | 969.1 ± 0.3 | 961.1 ± 0.3 | 952.9 ± 0.3 | 944.8 ± 0.4
34550 kPa | 970.2 ± 0.3 | 962.2 ± 0.3 | 954 ± 0.3 | 946.1 ± 0.4
36580 kPa | 971.3 ± 0.3 | 963.3 ± 0.3 | 955.2 ± 0.3 | 947.3 ± 0.4
38600 kPa | 972.3 ± 0.3 | 964.4 ± 0.3 | 956.4 ± 0.3 | 948.5 ± 0.4
39620 kPa | 972.8 ± 0.3 | 965 ± 0.3 | 957 ± 0.3 | 949.1 ± 0.4

c1ccncc1 [pyridine]
mass density [kg/m3]
Details | 298.15 K | 308.15 K | 318.15 K | 328.15 K
2130 kPa | 979 ± 0.2 | 969.2 ± 0.2 | 959.3 ± 0.2 | 949.2 ± 0.2
4150 kPa | 980.4 ± 0.2 | 970.6 ± 0.2 | 960.8 ± 0.2 | 950.7 ± 0.2
6180 kPa | 981.8 ± 0.2 | 972.1 ± 0.2 | 962.3 ± 0.2 | 952.3 ± 0.2
8210 kPa | 983.2 ± 0.2 | 973.5 ± 0.2 | 963.7 ± 0.2 | 953.9 ± 0.2
10230 kPa | 984.5 ± 0.2 | 974.9 ± 0.2 | 965.2 ± 0.2 | 955.4 ± 0.2
11250 kPa | 985.1 ± 0.2 | 975.6 ± 0.2 | 966 ± 0.2 | 956.2 ± 0.2
12260 kPa | 985.8 ± 0.2 | 976.3 ± 0.2 | 966.7 ± 0.2 | 956.9 ± 0.2
14290 kPa | 987.1 ± 0.2 | 977.6 ± 0.2 | 968.1 ± 0.2 | 958.4 ± 0.2
16310 kPa | 988.3 ± 0.2 | 978.9 ± 0.2 | 969.5 ± 0.2 | 959.9 ± 0.2
18340 kPa | 989.6 ± 0.2 | 980.3 ± 0.2 | 970.9 ± 0.2 | 961.3 ± 0.2
20370 kPa | 990.8 ± 0.2 | 981.6 ± 0.2 | 972.2 ± 0.2 | 962.8 ± 0.2
22390 kPa | 992.1 ± 0.2 | 982.8 ± 0.2 | 973.6 ± 0.2 | 964.2 ± 0.2
24420 kPa | 993.3 ± 0.2 | 984.1 ± 0.2 | 974.9 ± 0.2 | 965.6 ± 0.2
26450 kPa | 994.5 ± 0.2 | 985.4 ± 0.2 | 976.2 ± 0.2 | 967 ± 0.2
28470 kPa | 995.7 ± 0.2 | 986.7 ± 0.2 | 977.6 ± 0.2 | 968.3 ± 0.2
29490 kPa | 996.3 ± 0.2 | 987.2 ± 0.2 | 978.2 ± 0.2 | 969 ± 0.2
30500 kPa | 996.9 ± 0.2 | 987.8 ± 0.2 | 978.8 ± 0.2 | 969.7 ± 0.2
32530 kPa | 998 ± 0.2 | 989 ± 0.2 | 980.1 ± 0.2 | 971 ± 0.2
34550 kPa | 999.1 ± 0.2 | 990.3 ± 0.2 | 981.4 ± 0.2 | 972.3 ± 0.2
36580 kPa | 1000.3 ± 0.2 | 991.5 ± 0.2 | 982.6 ± 0.2 | 973.6 ± 0.2
38600 kPa | 1001.4 ± 0.2 | 992.6 ± 0.2 | 983.8 ± 0.2 | 975 ± 0.2
39620 kPa | 1002 ± 0.2 | 993.2 ± 0.2 | 984.4 ± 0.2 | 975.6 ± 0.2
